Tests used:
[1] = Serum stability of DNPs, dimensions in 1% fetal bovine serum by DLS; assay type: physicochemical
Description: Sample preparation: injected 25 μL ethanol stock solution of IAJD125/155 (80 mg/mL) into the mixture of 462.5 μL acetate buffer (10 mM, pH 4.0) and 12.5 μL Luc-mRNA (4.0 mg/mL in water), followed by vortex for 5 seconds.
Final composition of DNP solution: IAJD125/155 (4.0 mg/mL)+Luc-mRNA (0.1 mg/mL) in 500 μL acetate buffer. The dimension of assemblies in solution was checked by DLS.
DNPs in 1% Serum: Serum (5.5 μL)+[500 μL solution of IAJD (4.0 mg/mL) and Luc-mRNA (0.1 mg/mL].

[2] = Stability of DNPs by DLS after storage at 5° C.; assay type: physicochemical; design: key: Excellent: the original sizes and distribution remains almost the same after storage; Good: the original relatively big sizes became smaller or broad size distribution became narrower; Not stable: the original relatively big sizes or broad size distribution remained almost the similar level, or the original relatively small sizes became bigger or narrow size distribution became broader; details: storage time 2 days; CIAJD 4.0 mg/mL; CLuc-mRNA 0.1 mg/mL; acetate buffer pH 4.0
Description: The stability of the DNPs as assayed by DLS. All the samples are prepared in acetate buffer. The stabilities of the constructs were ranked: Excellent (in bold)—the original sizes and distribution remains almost the same after storage; Good—the original relatively big sizes became smaller or broad size distribution became narrower; Not stable—the original relatively big sizes or broad size distribution remained almost the similar level, or the original relatively small sizes became bigger or narrow size distribution became broader.

[3] = DNPs in acetate buffer (pH 4.0), no serum, IAJD 4.0 mg/mL + Luc-mRNA 0.1 mg/mL

Compound | PDI ([1]; DNPs in 1% Serum, t = 0 min) | Size (nm) ([1]; DNPs in 1% Serum, t = 0 min) | PDI ([1]; DNPs in 1% Serum, t = 10 min) | Size (nm) ([1]; DNPs in 1% Serum, t = 10 min) | PDI ([1]; DNPs in 1% Serum, t = 20 min) | Size (nm) ([1]; DNPs in 1% Serum, t = 20 min) | PDI ([1]; DNPs in 1% Serum, t = 30 min) | Size (nm) ([1]; DNPs in 1% Serum, t = 30 min) | PDI ([1]; DNPs in 1% Serum, t = 40 min) | Size (nm) ([1]; DNPs in 1% Serum, t = 40 min) | PDI ([1]; DNPs in 1% Serum, t = 50 min) | Size (nm) ([1]; DNPs in 1% Serum, t = 50 min) | PDI ([1]; DNPs in 1% Serum, t = 60 min) | Size (nm) ([1]; DNPs in 1% Serum, t = 60 min) | PDI [1, 3] | Size (nm) [1, 3] [nm] | Ranking of stability [2]
CCCCCCCCCCCCCCOc1cc(COC(=O)CCCN2CCN(CCO)CC2)cc(OCCCCCCCCCCC)c1 [IAJD 125, 3-(Tetradecyloxy)-5-(undecyloxy)benzyl 4-(4-(2-hydroxyethyl)piperazin-1-yl)butanoate] | 0.234 | 207 | 0.290 | 206 | 0.303 | 199 | 0.256 | 197 | 0.284 | 200 | 0.339 | 190 | 0.258 | 194 | 0.273 | 196 | 
CCCCCCCCCCCOc1cc(COC(=O)c2cc(OCCOCCOCCCC(=O)CCCN3CCCCC3)c(OCCOCCOCCOCc3ccccc3)c(OCCOCCOCCOC(=O)CCCN3CCCCC3)c2)cc(OCC(CC)CCCC)c1 (stereo not drawn) [IAJD 155] | 0.186 | 93 | 0.171 | 101 | 0.186 | 105 | 0.173 | 107 | 0.161 | 108 | 0.174 | 111 | 0.149 | 108 | 0.256 | 83 | 
Diheptyl 5,5′-((5-(((4-(4-methylpiperazin-1-yl)butanoyl)oxy)methyl)-1,3-phenylene)bis(oxy)) dipentanoate [IAJD 85] |  |  |  |  |  |  |  |  |  |  |  |  |  |  |  |  | Excellent
